Laboratory results: patent US5430027A, “2-chloro-N^6 -substituted adenosines, their pharmaceutical compositions, and activity in treating ischemias” (Novo Nordisk A/S, priority 1992, dated 1995)

Experiments:
A2 receptor = biological target: T1, A2 receptor (Rattus norvegicus, UniProt P30543); experiment: In vitro binding to adenosine A2 receptor, [3H]-CGS 21680 radioligand; settings: radioligand [3H]-CGS 21680; read-out: A2 receptor binding (Ki50)
T1 construct: from tissue
Method: (§1) Evaluation of in vitro binding to adenosine A1 and A2 receptors
(§2) The affinity of the novel compounds described in this invention for the adenosine A1 receptor was determined essentially as described in the literature using [^3 H]-R-PIA as a radioligand (Naunyn-Schmiedeberg's Archives of Pharmacology, 1980, 313, 179-187). Affinity for the A2 receptor was measured using the radioligand [^3 H]-CGS 21680 (European Journal of Pharmacology, 1989, 168, 243-246), and the values for representative compounds is given in the table below.

adenosine A1 receptor = biological target: T2, adenosine A1 receptor (Rattus norvegicus, UniProt P25099); experiment: In vitro binding to adenosine A1 receptor, [3H]-R-PIA radioligand; settings: for Ratio A2/A1: A2 binding Ki50 divided by A1 binding Ki50 (selectivity); for Ki: radioligand [3H]-R-PIA, read-out: A1 receptor binding (Ki50)
T2 construct: from tissue
T2 sequence (P25099 1-326): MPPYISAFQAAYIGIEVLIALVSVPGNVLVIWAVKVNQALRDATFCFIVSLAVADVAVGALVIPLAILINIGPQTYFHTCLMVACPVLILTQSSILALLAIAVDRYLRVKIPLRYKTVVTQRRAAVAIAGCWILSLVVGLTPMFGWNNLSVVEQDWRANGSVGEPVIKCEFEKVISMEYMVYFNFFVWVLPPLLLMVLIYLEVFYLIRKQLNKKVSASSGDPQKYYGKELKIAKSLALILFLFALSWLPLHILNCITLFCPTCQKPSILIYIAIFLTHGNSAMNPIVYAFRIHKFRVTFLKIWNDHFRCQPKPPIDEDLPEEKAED
Method: as §1, §2

T1 sequence (P30543 whole entry): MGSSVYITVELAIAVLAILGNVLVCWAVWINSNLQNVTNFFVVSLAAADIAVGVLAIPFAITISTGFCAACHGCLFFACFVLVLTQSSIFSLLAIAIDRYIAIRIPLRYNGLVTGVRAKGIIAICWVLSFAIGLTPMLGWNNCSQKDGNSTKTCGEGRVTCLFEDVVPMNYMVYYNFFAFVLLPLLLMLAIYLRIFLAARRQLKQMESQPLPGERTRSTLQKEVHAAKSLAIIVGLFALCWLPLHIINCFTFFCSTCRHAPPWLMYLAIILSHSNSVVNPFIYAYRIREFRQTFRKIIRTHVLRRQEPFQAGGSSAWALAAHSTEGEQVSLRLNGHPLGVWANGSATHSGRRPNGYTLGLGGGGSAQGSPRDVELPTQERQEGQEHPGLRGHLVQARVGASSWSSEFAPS

| Ki (A2 receptor) | Ratio A2/A1 (adenosine A1 receptor) | Ki (adenosine A1 receptor) | SMILES |
| --- | --- | --- | --- |
| 1660 nM | 92 | 18 nM | CN(C)Nc1nc(Cl)nc2c1ncn2[C@@H]1O[C@H](CO)[C@@H](O)[C@H]1O [Example 3, 2-Chloro-N-(N,N-dimethylamino)adenosine] |
| 2880 nM | 429 | 6.7 nM | OC[C@H]1O[C@@H](n2cnc3c(NOC4CCCC4)nc(Cl)nc32)[C@H](O)[C@@H]1O [Example 7, 2-Chloro-N-cyclopentyloxyadenosine] |
| 1150 nM | 55 | 21 nM | CONc1nc(Cl)nc2c1ncn2[C@@H]1O[C@H](CO)[C@@H](O)[C@H]1O [Example 8, 2-Chloro-N-methoxyadenosine] |
